# Residues, ends and D or L forms follow the SMILES beside them.
# Experiments:
# [1] = system: E. coli ATCC 25922; format: cell-based, Escherichia coli; details: ATCC 25922, 16 h
# Description: (§1) The antimicrobial activities of the peptides were investigated against the following bacteria: E. faecalis ATCC 29212, S. epidermidis ATCC 12228, S. aureus ATCC 29213, E. coli ATCC 25922, S. typhimurium […] and S. Pullorum […]. The MICs of the peptides were determined using a modified standard microtiter dilution method as described previously[29],[38]. Briefly, the microbial strains were cultured in MHB at 37 °C to reach mid-log phase and then diluted to 0.5-1×10^6 CFU/ml. 50 μL volumes of bacteria suspension were incubated in sterile 96-well plates with 50 μl of 2-fold serially diluted peptides at different concentrations (0.25-128 μM). Cultures with or without bacterial cells was employed as positive and negative controls, respectively. […] Each measurement was reproduced at least four times using three replicates.
# [2] = system: S. epidermidis ATCC 12228; format: cell-based, Staphylococcus epidermidis; details: ATCC 12228, 16 h
# Description: as §1
# [3] = system: E. faecalis ATCC 29212; format: cell-based, Enterococcus faecalis; details: ATCC 29212, 16 h
# Description: as §1
# [4] = system: S. Pullorum C7913; format: cell-based, Salmonella Pullorum; details: C7913, 16 h
# Description: as §1
# [5] = system: panel of microbes (Gram-negative and Gram-positive bacteria); format: cell-based; details: 16 h
# Description: as §1
# [6] = system: S. typhimurium C7731; format: cell-based, Salmonella typhimurium; details: C7731, 16 h
# Description: as §1
# [7] = system: S. aureus ATCC 29213; format: cell-based, Staphylococcus aureus; details: ATCC 29213, 16 h
# Description: as §1
smiles,measurement,setting,value
NCCCC[C@H](NC(=O)CNC(=O)[C@H](CC(N)=O)NC(=O)[C@H](CCCCN)NC(=O)[C@H](Cc1c[nH]c2ccccc12)NC(=O)[C@H](CCCCN)NC(=O)[C@H](Cc1c[nH]c2ccccc12)NC(=O)[C@H](CCCCN)NC(=O)[C@@H](N)Cc1c[nH]c2ccccc12)C(=O)N[C@@H](Cc1c[nH]c2ccccc12)C(=O)N[C@@H](CCCCN)C(=O)N[C@@H](Cc1c[nH]c2ccccc12)C(=O)N[C@@H](CCCCN)C(=O)N[C@@H](Cc1c[nH]c2ccccc12)C(=O)O [C6] (H-WKWKWKNGKWKWKW-OH),MIC (μM) Gram-negative E. coli 12228,[1],2 µM
same,MIC (μM) Gram-positive S. epidermidis 7913,[2],8 µM
same,MIC (μM) Gram-positive E. faecalis 25922,[3],16 µM
same,MIC (μM) Gram-negative S. Pullorum 43300,[4],4 µM
same,MICs against the panel of microbes (range),[5],2 to 16 µM
same,MIC (μM) Gram-negative S. typhimurium 29213,[6],8 µM
same,MIC (μM) Gram-positive S. aureus 1005,[7],4 µM

# — paper PMC6976587, “Conversion of Broad-Spectrum Antimicrobial Peptides into Species-Specific Antimicrobials Capable of Precisely Targeting Pathogenic Bacteria” (Scientific Reports, 2020)
